Results taken from patent US7906486B2, “Method of treating or preventing tissue deterioration, injury or damage due to disease of mucosa” (SciClone Pharmaceuticals, Inc., priority 2007, dated 2011).
“And” between values parts separate entries of the source, which are not always exact repeats. Identical values can stand only once.

Assay: Weights and survival (Example 4, SCI-04)
Type: in vivo, Syrian Golden Hamsters
Parameters: Animal weight: unit not given here
Conditions: for Animal weight: Group 2 (SCV-07 10 μg/kg, day −1 to day 20), individual animals
Procedure: All animals were weighed daily and their survival recorded, in order to assess possible differences in animal weight among treatment groups as an indication for mucositis severity and/or possible toxicity resulting from the treatments.
There were no significant differences in weight changes between study groups. The mean daily percent weight change data was evaluated. The saline treated control hamsters gained an average of 46.5% of their starting weight during the study. Hamsters in the group receiving SCV-07 at 10 μg/kg on days −1 to 20 gained an average of 51.3% of their starting weight during the study. Hamsters in the group receiving SCV-07 at 100 μg/kg on days −1 to 20 gained an average of 46.7% of their starting weight during the study. Hamsters in the group receiving SCV-07 at 1 mg/kg from day −1 to day 20 gained an average of 48.8% of their starting weight during the study. The significance of these differences was evaluated by calculating the area-under-the-curve (AUC) for the weight gain of each animal, and then comparing the different treatment groups using a One-Way ANOVA test.

N[C@H](CCC(=O)N[C@@H](Cc1c[nH]c2ccccc12)C(=O)O)C(=O)O [SCV-07, γ-D-glutamyl-L-tryptophan]
average weight gain, % of starting weight during the study (10 ug/kg on days -1 to 20): 51.3% | average weight gain, % of starting weight during the study (100 ug/kg on days -1 to 20): 46.7% | average weight gain, % of starting weight during the study (1 mg/kg from day -1 to day 20): 48.8% | Animal weight (day 0): 77 (2×) and 102 and 84 and 80 and 94 | Animal weight (day 1): 74 and 101 and 83 and 80 and 76 and 91 | Animal weight (day 2): 78 and 104 and 89 and 86 and 77 and 94 | Animal weight (day 3): 82 and 111 and 93 and 88 and 79 and 98 | Animal weight (day 4): 83 and 113 and 95 and 90 and 82 and 101 | Animal weight (day 5): 86 and 112 and 98 and 93 and 83 and 103 | Animal weight (day 6): 88 and 114 and 101 and 96 and 84 and 106 | Animal weight (day 7): 90 and 117 and 103 and 98 and 86 and 108 and 80 | Animal weight (day 8): 92 and 121 and 106 and 101 and 88 and 109 and 83 | Animal weight (day 9): 94 and 122 and 106 and 102 and 91 and 108 and 83 | Animal weight (day 10): 96 and 125 and 112 and 105 and 90 and 109 and 85 | Animal weight (day 11): 98 and 125 and 111 and 105 and 92 and 109 | Animal weight (day 12): 98 and 128 and 111 and 107 and 91 and 109 | Animal weight (day 13): 98 and 128 and 112 and 108 (2×) and 90 | Animal weight (day 14): 99 and 130 and 115 and 109 and 91 and 111 | Animal weight (day −1): 77 and 101 and 85 and 82 and 76 and 94
